Reference: US20250326748A1, “COMPOUNDS AND METHODS FOR MODULATING SPLICING” (REMIX THERAPEUTICS INC., priority 2022, published 2025)
Where two headings read alike, the source gives them in different places.

Key:
HTT mRNA = test: Splicing RT-qPCR assay, HTT canonical (CJ) and alternative (AJ) junction mRNA; type: cell-based, human; conditions: Homo sapiens; for IC50: canonical junction mRNA; for AC50: alternative junction mRNA, read-out: HTT AJ (AC50, increase in AJ mRNA)
Experimental: (§1) Compounds described herein were used to modulate RNA transcript abundance in cells. The expression of a target mRNA was measured by detecting the formation of an exon-exon junction in the canonical transcript (CJ). A compound mediated exon-inclusion event was detected by observing an increase in formation of a new junction with an alternative exon (AJ). Real-time qPCR assays were used to detect these splicing switches and interrogate the potency of various compounds towards different target genes. A high-throughput real time quantitative PCR (RT-qPCR) assay was developed to measure these two isoforms of the mRNA (CJ and AJ) for exemplary genes, such as HTT, SMN2, and MYB, together with a control housekeeping gene, GAPDH or GUSB or PPIA, used for normalization. Briefly, the A673 or K562 cell line was treated with various compounds described herein (e.g., compounds of Formula (D). After treatment, the levels of the HTT, MYB, or SMN2 mRNA targets were determined from each sample of cell lysate by cDNA synthesis followed by qPCR.
(§2) • Cells-to-CT 1-step kit: ThermoFisher A25602, Cells-to-CT lysis reagent: ThermoFisher 4391851C, TaqMan™ Fast Virus 1-Step Master Mix: ThermoFisher 4444436 • GAPDH: VIC-PL, ThermoFisher 4326317E (Assay: Hs99999905_m1)—used for K562/suspension cell lines • GUSB: VIC-PL, ThermoFisher 4326320E (Assay: Hs99999908_m1)—used for K562/suspension cell lines • PPIA: VIC-PL, ThermoFisher 4326316E (Assay: Hs99999904_m1)—used for A673/adherent cell lines
(§3) The A673 cell line was cultured in DMEM with 10% FBS. Cells were diluted with full growth media and plated in a 96-well plate (15,000 cells in 100 ul media per well). The plate was incubated at 37° C. with 5% CO2 for 24 hours to allow cells to adhere. An 11-point 3-fold serial dilution of the compounds was made in DMSO then diluted in media in an intermediate plate. Compounds were transferred from the intermediate plate to the cell plate with the top dose at a final concentration of 10 uM in the well. Final DMSO concentration was kept at or below 0.25%. The cell plate was returned to the incubator at 37° C. with 5% CO2 for an additional 24 hours.
(§4) The K562 cell line was cultured in IMDM with 10% FBS. For K562, cells were diluted with full growth media and plated in either a 96-well plate (50,000 cells in 50 uL media per well) or a 384-well plate (8,000-40,000 cells in 45 uL media per well). An 11-point 3-fold serial dilution of the compounds were made in DMSO then diluted in media in an intermediate plate. Compound was transferred from the intermediate plate to the cell plate with the top dose at a final concentration of 10 uM in the well. Final DMSO concentration was kept at or below 0.25%. Final volume was 100 uL for 96-well plate and 50 uL for 384-well plate. The cell plate was then placed in an incubator at 37° C. with 5% CO2 for 24 hours.
(§5) The cells were then gently washed with 50 uL-100 uL cold PBS before proceeding to addition of lysis buffer. 30 uL-50 μL of room temperature lysis buffer with DNAse I (and optionally RNAsin) was added to each well. Cells were shaken/mixed thoroughly at room temperature for 5-10 minutes for lysis to take place and then 3 uL-5 μL of room temperature stop solution was added and wells were shaken/mixed again. After 2-5 minutes, the cell lysate plate was transferred to ice for RT-qPCR reaction setup. The lysates could also be frozen at −80° C. for later use.
(§6) In some cases, a direct lysis buffer was used. An appropriate volume of 3× lysis buffer (10 mM Tris, 150 mM NaCl, 1.5%-2.5% Igepal and 0.1-1 U/uL RNAsin, pH 7.4) was directly added to either K562 or A673 cells in media and mixed by pipetting 3 times. The plates were then incubated at room temperature with shaking/rocking for 20-50 minutes to allow for lysis to take place. After this time, the cell lysate plate was transferred to ice to set up for the RT-qPCR reactions. The lysates could also be frozen at −80° C. for later use. […]

MYB mRNA = test: Splicing RT-qPCR assay, MYB canonical (CJ) and alternative (AJ) junction mRNA; type: cell-based, human; conditions: Homo sapiens; for IC50: canonical junction mRNA; for AC50: alternative junction mRNA, read-out: MYB AJ (AC50, increase in AJ mRNA)
Experimental: as §1, §2, §3, §4, §5, §6

Target C mRNA = test: Splicing RT-qPCR panel, Target C canonical junction (CJ) mRNA; type: cell-based, human; conditions: Homo sapiens, read-out: Target C CJ (decrease in CJ mRNA levels, IC50)
Experimental: as §1, §3, §4, §5
(§7) In some cases, a direct lysis buffer was used. An appropriate volume of 3× lysis buffer (10 mM Tris, 150 mM NaCl, 1.5%-2.5% Igepal and 0.1-1 U/uL RNAsin, pH 7.4) was directly added to either K562 or A673 cells in media and mixed by pipetting 3 times. The plates were then incubated at room temperature with shaking/rocking for 20-50 minutes to allow for lysis to take place. After this time, the cell lysate plate was transferred to ice to set up for the RT-qPCR reactions. The lysates could also be frozen at −80° C. for later use.
(§8) To set up 10 uL RT-qPCR reactions, cell lysates were transferred to 384-well qPCR plates containing the master mix according to the table below. The plates were sealed, gently vortexed, and spun down before the run. The volumes were adjusted accordingly in some instances where the reaction was carried in 20 μL. The table below summarizes the components of the RT-qPCR reactions:
(§9) The RT-qPCR reaction was performed using a QuantStudio (ThermoFisher) under the following fast cycling conditions. […]

SMN2 mRNA = test: Splicing RT-qPCR panel, SMN2 canonical junction (CJ) mRNA; type: cell-based, human; conditions: Homo sapiens, read-out: SMN2 CJ (decrease in CJ mRNA levels, IC50)
Experimental: as §1, §3, §4, §5, §7, §8, §9

K562 cells = test: Cell viability, Cell Titer Glo 2.0 assay, K562; conditions: 72 hours
[1] = 24 h, RT-qPCR, A673 or K562 cells, 24 hours treatment, read-out: HTT CJ (IC50, decrease in CJ mRNA)
[2] = qPCR panel, read-out: HTT CJ (decrease in CJ mRNA levels, IC50)
[3] = RT-qPCR, A673 or K562 cells, 24 hours treatment
[4] = qPCR panel, read-out: MYB CJ (decrease in CJ mRNA levels, IC50)
[5] = RT-qPCR, A673 or K562 cells, 24 hours treatment, read-out: MYB CJ (IC50, decrease in CJ mRNA)

IC50 (HTT mRNA; [1])	IC50 (HTT mRNA; [2])	IC50 (MYB mRNA; [4])	IC50 (MYB mRNA; [5])	IC50 (Target C mRNA)	IC50 (SMN2 mRNA)	SMILES	AC50 (HTT mRNA; [3])	AC50 (MYB mRNA; [3])	Effect on Cell Viability, K562 (K562 cells)
100 to 1000 nM	100 to 1000 nM	< 100 nM	< 100 nM	1000 to 10000 nM	< 100 nM	CN(C)C1CCN(c2ccc3nc(-c4cc5cn(C)nc5c(F)c4O)cnc3c2)CC1 [Compound 360, 5-{6-[4-(dimethylamino)piperidin-1-yl]quinoxalin-2-yl}-7-fluoro-2-methylindazol-6-ol]	> 10 µM	100 to 1000 nM	B (100-1000 nM)
1000 to 10000 nM	1000 to 10000 nM	< 100 nM	< 100 nM	> 10000 nM	< 100 nM	Cc1c(O)c(-c2cc(Cl)c3cc(N4C[C@@H](C)NC5(CC5)C4)cnc3n2)cc2cn(C)nc12 [Compound 399]	> 10 µM	< 100 nM	B (100-1000 nM)
1000 to 10000 nM	1000 to 10000 nM	100 to 1000 nM	100 to 1000 nM	> 10000 nM	< 100 nM	C[C@H]1CN(c2cnc3nc(-c4cc5cn(C)nc5cc4O)cc(Cl)c3c2)CC2(CC2)N1 [Compound 379]	1 to 10 µM	100 to 1000 nM	B (100-1000 nM)
100 to 1000 nM	100 to 1000 nM	< 100 nM	< 100 nM	100 to 1000 nM	< 100 nM	CNC1CCN(c2cnc3nc(-c4cc5cn(C)nc5c(C)c4O)ccc3c2)C1 (centres unmarked) [Compound 113, 2,7-dimethyl-5-{6-[3-(methylamino)pyrrolidin-1-yl]-1,8-naphthyridin-2-yl}indazol-6-ol]	0.1 to 1 µM	< 100 nM	–
> 10000 nM	> 10000 nM	1000 to 10000 nM	1000 to 10000 nM	–	< 100 nM	Cc1c(N2C[C@@H](C)N[C@@H](C)C2)cnc2nc(-c3cc4cn(C)nc4cc3O)ccc12 [Compound 487]	> 10 µM	1000 to 10000 nM	–
> 10000 nM	> 10000 nM	1000 to 10000 nM	1000 to 10000 nM	> 10000 nM	100 to 1000 nM	CN(c1cnc2nc(-c3cc(F)c4nn(C)cc4c3)ccc2c1)[C@H]1CCNC1 [Compound 367, 7-(7-fluoro-2-methylindazol-5-yl)-N-methyl-N-[(3S)-pyrrolidin-3-yl]-1,8-naphthyridin-3-amine]	> 10 µM	1000 to 10000 nM	C (1000-9999 nM)
< 100 nM	< 100 nM	< 100 nM	< 100 nM	< 100 nM	< 100 nM	Cn1cc2cc(-c3cnc4cc(C5CCNCC5)cc(F)c4n3)c(O)c(F)c2n1 [Compound 164, 7-fluoro-5-[8-fluoro-6-(piperidin-4-yl)quinoxalin-2-yl]-2-methylindazol-6-ol]	< 0.1 µM	< 100 nM	–
100 to 1000 nM	100 to 1000 nM	100 to 1000 nM	100 to 1000 nM	1000 to 10000 nM	< 100 nM	Cc1c(O)c(-c2ccc3nc(N4CCNC(C)C4)cnc3n2)cc2cn(C)nc12 (centres unmarked) [Cmpd 196]	1 to 10 µM	< 100 nM	–
> 10000 nM	> 10000 nM	100 to 1000 nM	100 to 1000 nM	–	< 100 nM	Cn1cc2cc(-c3cc(Cl)c4cc(N5CC[C@@H](NC(C)(C)C)C5)cnc4n3)c(O)c(F)c2n1 [Compound 498]	> 10 µM	100 to 1000 nM	–
< 100 nM	< 100 nM	< 100 nM	< 100 nM	–	< 100 nM	Cn1cc2cc(-c3cc(Cl)c4cc(N5CC[C@H](NC(C)(C)C)C5)cnc4n3)c(O)c(F)c2n1 [Compound 497]	0.1 to 1 µM	< 100 nM	–
1000 to 10000 nM	1000 to 10000 nM	< 100 nM	< 100 nM	–	< 100 nM	C[C@@H]1CN(c2cnc3nc(-c4cc5cn(C)nc5cc4O)ccc3c2Cl)C[C@H](C)N1 [Compound 492]	1 to 10 µM	< 100 nM	–
> 10000 nM	> 10000 nM	< 100 nM	< 100 nM	1000 to 10000 nM	–	C[C@H]1CN(c2cnc3nc(-c4cc(F)c5nn(C)cc5c4)ccc3c2Cl)CCN1 [Compound 385, 5-chloro-2-(7-fluoro-2-methylindazol-5-yl)-6-[(3S)-3-methylpiperazin-1-yl]-1,8-naphthyridine]	1 to 10 µM	100 to 1000 nM	A (<100 nM)
1000 to 10000 nM	1000 to 10000 nM	100 to 1000 nM	100 to 1000 nM	–	< 100 nM	Cn1cc2cc(-c3ccc4c(Cl)c(N5CCNC6(CC6)C5)cnc4n3)c(O)cc2n1 [Compound 500, 5-[5-chloro-6-(4,7-diazaspiro[2.5]octan-7-yl)-1,8-naphthyridin-2-yl]-2-methyl-indazol-6-ol]	1 to 10 µM	100 to 1000 nM	–
1000 to 10000 nM	1000 to 10000 nM	100 to 1000 nM	100 to 1000 nM	> 10000 nM	–	C[C@@H]1CN(c2cnc3nc(-c4cc5cn(C)nc5cc4O)cc(Cl)c3c2)CC2(CC2)N1 [Compound 378]	> 10 µM	100 to 1000 nM	B (100-1000 nM)
< 100 nM	< 100 nM	< 100 nM	< 100 nM	100 to 1000 nM	–	Cc1c(O)c(-c2cc(Cl)c3cc(N4C[C@H](C)N[C@@H](C)C4)cnc3n2)cc2cn(C)nc12 [Compound 232, 5-{4-chloro-6-[(3S,5S)-3,5-dimethylpiperazin-1-yl]-1,8-naphthyridin-2-yl}-2,7-dimethylindazol-6-ol]	< 0.1 µM	< 100 nM	A (<100 nM)
